The star is where a group is joined. ξ: configuration not given here. Lipoyl(6ξ) = O=C(CCCCC1CCSS1)*
Tested on: airway epithelium cells
Assay: In vitro transfection study on cultured airway epithelium cells (luciferase, RLU/mg cellular protein)
Assay type: cell-based
Conditions: ternary complexes formed by P704, a nucleic acid and the compound
Procedure: In vitro transfection: For the luciferase assay, cells were seeded at a density of 1.8×10^4/well (BEAS-2B) or 3.5×10^4/well (16HBE) in 96-well plates 24 h before transfection to reach 60-80% confluence. Following removal of growth medium, cells were rinsed with DPBS (Gibco, Germany). 170 μl of fresh serum-free OptiMEM (Gibco, Germany) were added per well, and subsequently 30 μl of IVT-mRNA or pDNA containing complexes prepared, as described above, corresponding to 400 ng IVT-mRNA or pDNA per well, were added in replicates of five. After 4 h of incubation at 37° C. in a humidified 5% CO2-containing atmosphere, the transfection medium was replaced with culture medium supplemented with 10% FBS and 1% (v/v) penicillin/streptomycin. […] assayed with Metridia luciferase substrate (coelenterazine, Invivogen, France) after 24 h using a FLUOstar microplate reader (BMG Labtech, […]). In all cases each sample was measured on at least two other occasions to ensure the reproducibility of the data.

Substance: NH2-VKRKKKPKKRRRRKKWK(DL-lipoic acid)-CONH2 (H-VKRKKKPKKRRRRKKWK(Lipoyl(6ξ))-NH2; SMILES CC(C)[C@H](N)C(=O)N[C@@H](CCCCN)C(=O)N[C@@H](CCCNC(=N)N)C(=O)N[C@@H](CCCCN)C(=O)N[C@@H](CCCCN)C(=O)N[C@@H](CCCCN)C(=O)N1CCC[C@H]1C(=O)N[C@@H](CCCCN)C(=O)N[C@@H](CCCCN)C(=O)N[C@@H](CCCNC(=N)N)C(=O)N[C@@H](CCCNC(=N)N)C(=O)N[C@@H](CCCNC(=N)N)C(=O)N[C@@H](CCCNC(=N)N)C(=O)N[C@@H](CCCCN)C(=O)N[C@@H](CCCCN)C(=O)N[C@@H](Cc1c[nH]c2ccccc12)C(=O)N[C@@H](CCCCNC(=O)CCCCC1CCSS1)C(N)=O) [compound 0 (DL)]
- transfection efficiencies of ternary complexes with compound 0 (DL) versus compound 0 (R): similar
